Source: patent US20090155272A1, “Targeted pharmaceuticals and ligands” (priority 2005, published 2009)
Peptide text beside a SMILES is read from it. * marks the point of attachment. Decanoyl = CCCCCCCCCC(=O)*; CH2Cl = ClC*

Columns and labels:
β-DG = assay: Metalloprotease-dependent shedding and cleavage of dystroglycan in cultured cells (immunoblot); type: cell-based; conditions: incubation of the cells with inhibitor
Experimental: FIG. 6A-B depicts a modification of dystroglycan by metalloprotease activity. (A) Structure of α-DG and β-DG. α-DG associates non-covalently with β-DG, which spans the plasma membrane. O-linked glycosylation is shown as a chain of circles of varying length, whereas N-linked glycosylation is shown as branches. (B) Immunoblot analysis of α-DG and β-DG levels in cell lines cultured in the presence or absence of the MP inhibitor BB-2516. Cells were cultured in serum-free medium for two days with or without BB-2516 and then total cellular proteins were extracted and subjected to immunoblot analysis of α-DG and β-DG.
To confirm that metalloprotease activity is indeed blocked by the GM6001, the cleavage of known molecules is monitored. Using identically treated cell populations, proteins are extracted and analyzed by immunoblot. These controls include detecting the cleavage of the β-DG subunit, which is evidenced by a shift in the molecular mass of this protein from 43 kDa to 31 kDa in MDA-MB-231 cells using an antibody binding the β-DG cytoplasmic domain (see FIG. 6).
For example, metalloprotease cleavage events are responsible for the shedding of β-DG from the cell surface, and for direct cleavage of the extracellular domain of β-DG, which is detected by the reduction in the molecular mass of β-DG from 43 kD to 31 kD. Both the shedding of β-DG, and the cleavage of β-DG are blocked by the incubation of the cells with the broad-spectrum MMP inhibitors GM6001 or BB2516. Detection of the cleaved form of p-DG can be completely eliminated after just 24 hours exposure to the MMP inhibitor.

[1] = system: BT474 and MDA-MB-231 cells; conditions: 50 μM, extended periods of time; cited from earlier work
known metalloproteases = conditions: 50 μM; cited from earlier work
α-DG = assay: Immunoprecipitation of the DG complex after furin inhibitor treatment; type: cell-based; conditions: EpH4, MDA-MB-231 and MDA-MB-468 cells

SMILES	cleavage of β-DG (43 kD to 31 kD) (β-DG)	shedding of β-DG from the cell surface (β-DG)	cell viability on extended exposure [1]	block of activity of known metalloproteases (known metalloproteases)	α-DG band position (α-DG)
CNC(=O)[C@H](Cc1c[nH]c2ccccc12)NC(=O)[C@@H](CC(=O)NO)CC(C)C [GM6001]	blocked	blocked	without loss of cell viability	more than sufficient to block the activity of known metalloproteases	
CNC(=O)[C@@H](NC(=O)[C@H](CC(C)C)[C@H](O)C(=O)NO)C(C)(C)C [BB2516]	blocked	blocked			
CCCCCCCCCC(=O)N[C@@H](CCCN=C(N)N)C(=O)N[C@H](C(=O)N[C@@H](CCCCN)C(=O)N[C@@H](CCCN=C(N)N)C(=O)CCl)C(C)C [CMK] (Decanoyl-RVKR-CH2Cl)					shifted upward in all cells
